Among the data in patent publication US11524938B2, “Aromatic sulfonamide derivatives” (Bayer Pharma Aktiengesellschaft, priority 2016, dated 2022) are Emax and IC50 values, retold here.

In general, IC50 refers to the concentration needed to halve the response being measured. Read a high IC50 as lower potency.

This experiment has as its target T1, human P2X4 (Homo sapiens, UniProt Q99571).
T1 sequence (Q99571 1-388): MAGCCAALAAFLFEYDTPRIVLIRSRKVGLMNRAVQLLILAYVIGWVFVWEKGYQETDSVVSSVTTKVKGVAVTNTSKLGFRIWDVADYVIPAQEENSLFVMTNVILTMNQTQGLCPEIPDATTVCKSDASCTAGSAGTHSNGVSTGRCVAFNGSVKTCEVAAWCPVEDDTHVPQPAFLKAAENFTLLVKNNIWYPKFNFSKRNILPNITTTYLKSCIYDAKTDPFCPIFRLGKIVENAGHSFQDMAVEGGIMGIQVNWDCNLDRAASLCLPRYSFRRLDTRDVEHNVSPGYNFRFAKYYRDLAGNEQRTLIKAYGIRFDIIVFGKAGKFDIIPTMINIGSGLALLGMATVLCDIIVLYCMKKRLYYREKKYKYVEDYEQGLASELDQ
As to the kind of experiment: Human P2X4 HEK Cell FLIPR Assay. To be noted: agonist Bz-ATP at EC80; for Emax: HEK293, HEK293 cells, percentage of maximal inhibition, read-out: Human P2X4 HEK Cells (FLIPR Assay) avg Efficacy [%]; for IC50: HEK293 cells, individual values listed where some fall outside detection range. It is filed as cell-based. Put shortly:
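HEK293 cells stably expressing human P2X4, Fluo8-AM loaded 30 min at 37° C, then compound 30 min at room temperature (0.5% DMSO, pH 7.4 buffer with 1.8 mM CaCl2). Bz-ATP at its daily-determined EC80 added; calcium fluorescence read over 120 sec; IC50 from peak RFU normalized to agonist control, triplicates.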

As to `NS(=O)(=O)c1cc(NC(=O)Cc2c(Cl)cccc2Cl)ccc1-n1cc(Cl)cn1` [Example 80, N-[4-(4-Chloro-1H-pyrazol-1-yl)-3-sulfamoylphenyl]-2-(2,6-dichlorophenyl)acetamide], the Emax was 96% and the concentration for half-maximal inhibition (IC50) amounted to 79 nM.

On to `NS(=O)(=O)c1cc(NC(=O)Cc2ccc(F)c(F)c2)ccc1-n1cc(Cl)cn1` [Example 81, N-[4-(4-Chloro-1H-pyrazol-1-yl)-3-sulfamoylphenyl]-2-(3,4-difluorophenyl)acetamide], for which the Emax was 40% and the half-inhibitory concentration (IC50) is over 25000 nM.

For `NS(=O)(=O)c1cc(NC(=O)Cc2cccc(Cl)c2)ccc1-n1cc(Cl)cn1` [Example 82, 2-(3-Chlorophenyl)-N-[4-(4-chloro-1H-pyrazol-1-yl)-3-sulfamoylphenyl]acetamide], the Emax stood at 36% and the IC50 is over 25000 nM.

Turning to `NS(=O)(=O)c1cc(NC(=O)Cc2cc(F)cc(F)c2)ccc1-n1cc(Cl)cn1` [Example 83, N-[4-(4-Chloro-1H-pyrazol-1-yl)-3-sulfamoylphenyl]-2-(3,5-difluorophenyl)acetamide], the Emax came to 36% and the half-inhibitory concentration (IC50) is over 25000 nM.

As to `NS(=O)(=O)c1cc(NC(=O)Cc2ccc(F)cc2)ccc1-n1cc(Cl)cn1` [Example 84, N-[4-(4-Chloro-1H-pyrazol-1-yl)-3-sulfamoylphenyl]-2-(4-fluorophenyl)acetamide], the Emax worked out at 29% and the IC50 was over 25000 nM.

As to `NS(=O)(=O)c1cc(NC(=O)Cc2ccccc2O)ccc1-n1cc(Cl)cn1` [Example 85, N-[4-(4-Chloro-1H-pyrazol-1-yl)-3-sulfamoylphenyl]-2-(2-hydroxyphenyl)acetamide], the Emax was determined as 92% and the IC50 came to 42 nM.

On to `NS(=O)(=O)c1cc(NC(=O)Cc2ccc(O)cc2)ccc1-n1cc(Cl)cn1` [Example 86, N-[4-(4-Chloro-1H-pyrazol-1-yl)-3-sulfamoylphenyl]-2-(4-hydroxyphenyl)acetamide], for which the Emax turned out to be 97% and the 50% inhibitory concentration (IC50) stood at 353 nM.

`NS(=O)(=O)c1cc(NC(=O)Cc2cccc(F)c2F)ccc1-n1cc(Cl)cn1` [Example 87, N-[4-(4-Chloro-1H-pyrazol-1-yl)-3-sulfamoylphenyl]-2-(2,3-difluorophenyl)acetamide]: the Emax was 82% and the half-inhibitory concentration (IC50) came out at 342 nM.

`NS(=O)(=O)c1cc(NC(=O)Cc2ccc(F)cc2Cl)ccc1-n1cc(Cl)cn1` [Example 88, 2-(2-Chloro-4-fluorophenyl)-N-[4-(4-chloro-1H-pyrazol-1-yl)-3-sulfamoyl-phenyl]acetamide]: the Emax came out at 87% and the half-inhibitory concentration (IC50) is 80 nM.

As for `NS(=O)(=O)c1cc(NC(=O)Cc2cccnc2Cl)ccc1-n1cc(Cl)cn1` [Example 89, N-[4-(4-Chloro-1H-pyrazol-1-yl)-3-sulfamoylphenyl]-2-(2-chloropyridin-3-yl)-acetamide], the Emax was 83% and the IC50 was determined as 2320 nM.

In the case of `NS(=O)(=O)c1cc(NC(=O)Cc2cccc(C(F)(F)F)c2Cl)ccc1-n1cc(Cl)cn1` [Example 90, N-[4-(4-Chloro-1H-pyrazol-1-yl)-3-sulfamoylphenyl]-2-[2-chloro-3-(trifluoromethyl)-phenyl]acetamide], the Emax amounted to 85% and the IC50 was determined as 774 nM.

As for `NS(=O)(=O)c1cc(NC(=O)Cc2ccccc2OC(F)F)ccc1-n1cc(Cl)cn1` [Example 91, N-[4-(4-Chloro-1H-pyrazol-1-yl)-3-sulfamoylphenyl]-2-[2-(difluoromethoxy)-phenyl]acetamide], the Emax was 94% and the half-inhibitory concentration (IC50) came to 169 nM.

Take `NS(=O)(=O)c1cc(NC(=O)Cc2ccccc2OC(F)(F)F)ccc1-n1cc(Cl)cn1` [Example 92, N-[4-(4-Chloro-1H-pyrazol-1-yl)-3-sulfamoylphenyl]-2-[2-(trifluoromethoxy)-phenyl]acetamide]: the Emax was found to be 92% and the half-inhibitory concentration (IC50) is 143 nM.

As for `NS(=O)(=O)c1cc(NC(=O)Cc2cc(F)c(F)cc2Cl)ccc1-n1cc(Cl)cn1` [Example 93, 2-(2-Chloro-4,5-difluorophenyl)-N-[4-(4-chloro-1H-pyrazol-1-yl)-3-sulfamoylphenyl]-acetamide], the Emax was 73% and the half-inhibitory concentration (IC50) was 74 nM.

Take `COc1ccc(CC(=O)Nc2ccc(-n3cc(Cl)cn3)c(S(N)(=O)=O)c2)c(Cl)c1` [Example 94, 2-(2-Chloro-4-methoxyphenyl)-N-[4-(4-chloro-1H-pyrazol-1-yl)-3-sulfamoylphenyl]-acetamide]: the Emax worked out at 72% and the half-maximal inhibitory concentration (IC50) worked out at 413 nM.

As for `Cc1ccc(F)c(CC(=O)Nc2ccc(-n3cc(Cl)cn3)c(S(N)(=O)=O)c2)c1Cl` [Example 95, 2-(2-Chloro-6-fluoro-3-methylphenyl)-N-[4-(4-chloro-1H-pyrazol-1-yl)-3-sulfamoyl-phenyl]acetamide], the Emax was determined as 87% and the half-maximal inhibitory concentration (IC50) is 54 nM.

For `NS(=O)(=O)c1cc(NC(=O)Cc2c(F)ccc(F)c2Cl)ccc1-n1cc(Cl)cn1` [Example 96, 2-(2-Chloro-3,6-difluorophenyl)-N-[4-(4-chloro-1H-pyrazol-1-yl)-3-sulfamoylphenyl]-acetamide], the Emax came out at 83% and the IC50 turned out to be 233 nM.

Turning to `Cc1ccc(Cl)c(CC(=O)Nc2ccc(-n3cc(Cl)cn3)c(S(N)(=O)=O)c2)c1` [Example 97, 2-(2-Chloro-5-methylphenyl)-N-[4-(4-chloro-1H-pyrazol-1-yl)-3-sulfamoylphenyl]-acetamide], the Emax is 103% and the IC50 was 201 nM.

Turning to `NS(=O)(=O)c1cc(NC(=O)Cc2cc(F)ccc2Cl)ccc1-n1cc(Cl)cn1` [Example 98, 2-(2-Chloro-5-fluorophenyl)-N-[4-(4-chloro-1H-pyrazol-1-yl)-3-sulfamoylphenyl]-acetamide], the Emax turned out to be 77% and the half-maximal inhibitory concentration (IC50) is 124 nM.

For the molecule `NS(=O)(=O)c1cc(NC(=O)Cc2cc(Cl)ccc2Cl)ccc1-n1cc(Cl)cn1` [Example 99, N-[4-(4-Chloro-1H-pyrazol-1-yl)-3-sulfamoylphenyl]-2-(2,5-dichlorophenyl)acetamide], the Emax was 87% and the IC50 was 499 nM.

For `CC(C)c1ccccc1CC(=O)Nc1ccc(-n2cc(Cl)cn2)c(S(N)(=O)=O)c1` [Example 100, N-[4-(4-Chloro-1H-pyrazol-1-yl)-3-sulfamoylphenyl]-2-(2-isopropylphenyl)acetamide], the Emax is 86% and the half-maximal inhibitory concentration (IC50) was 319 nM.

With `COc1ccc(Cl)c(CC(=O)Nc2ccc(-n3cc(Cl)cn3)c(S(N)(=O)=O)c2)c1` [Example 101, 2-(2-Chloro-5-methoxyphenyl)-N-[4-(4-chloro-1H-pyrazol-1-yl)-3-sulfamoylphenyl]-acetamide], the Emax is 83% and the IC50 was 202 nM.

Turning to `NS(=O)(=O)c1cc(NC(=O)Cc2c(F)cc(F)cc2Cl)ccc1-n1cc(Cl)cn1` [Example 102, 2-(2-Chloro-4,6-difluorophenyl)-N-[4-(4-chloro-1H-pyrazol-1-yl)-3-sulfamoylphenyl]-acetamide], the Emax was determined as 80% and the concentration for half-maximal inhibition (IC50) came to 99 nM.

`NS(=O)(=O)c1cc(NC(=O)Cc2c(Cl)cccc2C(F)(F)F)ccc1-n1cc(Cl)cn1` [Example 103, N-[4-(4-Chloro-1H-pyrazol-1-yl)-3-sulfamoylphenyl]-2-[2-chloro-6-(trifluoromethyl)-phenyl]acetamide]: the Emax amounted to 103% and the IC50 came out at 174 nM.

As to `Cc1cc(F)c(Br)cc1CC(=O)Nc1ccc(-n2cc(Cl)cn2)c(S(N)(=O)=O)c1` [Example 104, 2-(5-Bromo-4-fluoro-2-methylphenyl)-N-[4-(4-chloro-1H-pyrazol-1-yl)-3-sulfamoyl-phenyl]acetamide], the Emax came to 95% and the IC50 was 2230 nM.

Turning to `COc1cccc(Cl)c1CC(=O)Nc1ccc(-n2cc(Cl)cn2)c(S(N)(=O)=O)c1` [Example 105, 2-(2-Chloro-6-methoxyphenyl)-N-[4-(4-chloro-1H-pyrazol-1-yl)-3-sulfamoyl-phenyl]acetamide], the Emax amounted to 101% and the IC50 was found to be 108 nM.

Take `CC(C(=O)Nc1ccc(-n2cc(Cl)cn2)c(S(N)(=O)=O)c1)c1c(F)cccc1F` (stereo not shown) [Example 106, N-[4-(4-Chloro-1H-pyrazol-1-yl)-3-sulfamoylphenyl]-2-(2,6-difluorophenyl)-propanamide]: the Emax is 92% and the half-maximal inhibitory concentration (IC50) was determined as 4630 nM.

Consider `NS(=O)(=O)c1cc(NC(=O)Cc2ccc(C(F)F)cc2)ccc1-n1cc(Cl)cn1` [Example 107, N-[4-(4-Chloro-1H-pyrazol-1-yl)-3-sulfamoylphenyl]-2-[4-(difluoromethyl)-phenyl]acetamide], for which the Emax came to 44% and the half-inhibitory concentration (IC50) is over 25000 nM.

For `NS(=O)(=O)c1cc(NC(=O)Cc2ccc(Cl)cc2)ccc1-n1cc(C(F)(F)F)cn1` [Example 108, 2-(4-Chlorophenyl)-N-{3-sulfamoyl-4-[4-(trifluoromethyl)-1H-pyrazol-1-yl]phenyl}-acetamide], the Emax stood at 35% and the IC50 is over 25000 nM.
